Test results published in US8071625B2, “Certain chemical entities, compositions, and methods” (Cytokinetics, Inc., priority 2006, dated 2011).

The molecules below were run against T1, crosslinked smooth muscle actomyosin (chicken gizzard smooth muscle myosin subfragment-1 crosslinked to cardiac or skeletal actin) (Gallus gallus, UniProt P10587) (assay: Lead optimization pyruvate kinase/horseradish peroxidase/pyruvate oxidase-coupled ATPase assay (compound dose response)). Conditions: read-out: IC50 Arithmetic Mean.
T1 construct: chicken gizzard smooth muscle myosin subfragment-1; from tissue; host or cells: chicken gizzard
Format: biochemical
How it was run: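 IC50 is the midpoint of a 4-parameter dose–response fit of Amplex Red fluorescence (480/615 nm). Buffer was 12 mM potassium PIPES pH 7.00 at 22 °C with 100 mM KCl, 2 mM MgCl2, 0.15 mM ATP and 2 mM phosphate, with PK/pyruvate oxidase/HRP coupling. Enzyme: smooth muscle myosin S1 crosslinked to cardiac or skeletal actin, dosed empirically by activity.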

**Q.** With `COC(=O)c1ccccc1CNC(=O)C1(COC(=O)Nc2ccc(C(F)(F)F)cc2)CCN(C(=O)CN)CC1` [methyl 2-({[1-(2-aminoacetyl)-4-({N-[4-(trifluoromethyl)phenyl]carbamoyloxy}methyl)-4-piperidyl]carbonylamino}methyl)benzoate] as the molecule, how does the IC50 read?
**A.** 2290 nM

**Q.** `CCc1ccc(NC(=O)NC2(C(=O)NCc3ccccc3Cl)CCN(C(=O)OC)C2)cc1` (stereo not drawn) [methyl 3-{N-[(2-chlorophenyl)methyl]carbamoyl}-3-{[(4-ethylphenyl)amino]carbonylamino}pyrrolidinecarboxylate] was tested. Which IC50 did it give?
**A.** 18600 nM

**Q.** How did the IC50 turn out when `CCc1ccc(NC(=O)OCC2(C(=O)NCc3ccccc3Cl)CCCN(C(=O)OC)C2)cc1` (stereo not drawn) [methyl 3-{N-[(2-chlorophenyl)methyl]carbamoyl}-3-{[N-(4-ethylphenyl)carbamoyloxy]methyl}piperidinecarboxylate] was run?
**A.** 474 nM

**Q.** `CCc1ccc(NC(=O)OCC2(C(=O)NCc3ccccc3Cl)CCN(C(=O)CCC(=O)OC)CC2)cc1` [methyl 4-(4-{N-[(2-chlorophenyl)methyl]carbamoyl}-4-{[N-(4-ethylphenyl)carbamoyloxy]methyl}piperidyl)-4-oxobutanoate] was tested. Which IC50 did it give?
**A.** 426 nM

**Q.** Which IC50 does the source give for `CCc1ccc(NC(=O)OCC2(C(=O)NCc3ccccc3Cl)CCN(C(=O)OC)CC2)cc1` [methyl 4-{N-[(2-chlorophenyl)methyl]carbamoyl}-4-{[N-(4-ethylphenyl)carbamoyloxy]methyl}piperidinecarboxylate] here?
**A.** 530 nM

**Q.** For `COC(=O)c1ccc(NC(=O)OCC2(C(=O)NCc3ccccc3Cl)CCN(C(=O)CN)CC2)cc1` [methyl 4-{[(1-(2-aminoacetyl)-4-{N-[(2-chlorophenyl)methyl]carbamoyl}-4-piperidyl)methoxy]carbonylamino}benzoate], which IC50 is on record?
**A.** 1810 nM

**Q.** For `COC(=O)c1ccc(NC(=O)OCC2(C(=O)NCc3ccccc3Cl)CCOCC2)cc1` [methyl 4-{[(4-{N-[(2-chlorophenyl)methyl]carbamoyl}-2H-3,4,5,6-tetrahydropyran-4-yl)methoxy]carbonylamino}benzoate], which IC50 is on record?
**A.** 3550 nM

**Q.** How did the IC50 turn out when `CCc1ccc(NC(=O)OC[C@H](C)N(CC(=O)OC(C)(C)C)C(=O)NCc2ccccc2Cl)cc1` [tert-butyl 2-(N-{(1S)-2-[N-(4-ethylphenyl)carbamoyloxy]-isopropyl}{[(2-chlorophenyl)methyl]amino}carbonylamino)acetate] was run?
**A.** 18500 nM

**Q.** How did the IC50 turn out when `CCc1ccc(NC(=O)OCC2(C(=O)NCc3ccccc3Cl)CCN(C(=O)C3CCN3C(=O)OC(C)(C)C)CC2)cc1` (stereo not drawn) [tert-butyl 2-[(4-{N-[(2-chlorophenyl)methyl]carbamoyl}-4-{[N-(4-ethylphenyl)carbamoyloxy]methyl}piperidyl)carbonyl]azetidinecarboxylate] was run?
**A.** 4830 nM

**Q.** How did the IC50 turn out when `CCc1ccc(NC(=O)OCC2(C(=O)NCc3ccccc3Cl)CCN(C(=O)C3COCCN3C(=O)OC(C)(C)C)CC2)cc1` (stereo not drawn) [tert-butyl 3-[(4-{N-[(2-chlorophenyl)methyl]carbamoyl}-4-{[N-(4-ethylphenyl)carbamoyloxy]methyl}piperidyl)carbonyl]morpholine-4-carboxylate] was run?
**A.** 1680 nM

**Q.** Which IC50 does the source give for `CCc1ccc(NC(=O)OCC2(C(=O)NCc3ccccc3Cl)CCN(C(=O)OC(C)(C)C)CC2)cc1` [tert-butyl 4-{N-[(2-chlorophenyl)methyl]carbamoyl}-4-{[N-(4-ethylphenyl)carbamoyloxy]methyl}piperidinecarboxylate] here?
**A.** 3210 nM

**Q.** `NCC(=O)N1CCC(COC(=O)Nc2ccc3ccccc3c2)(C(=O)NCc2ccccc2Cl)CC1` [{1-(2-aminoacetyl)-4-[(N-(2-naphthyl)carbamoyloxy)methyl](4-piperidyl)}-N-[(2-chlorophenyl)methyl]carboxamide] was tested. Which IC50 did it give?
**A.** 83 nM

**Q.** How did the IC50 turn out when `NCC(=O)N1CCC(COC(=O)Nc2ccc3c(c2)CCC3)(C(=O)NCc2ccccc2Cl)CC1` [{1-(2-aminoacetyl)-4-[(N-indan-5-ylcarbamoyloxy)methyl](4-piperidyl)}-N-[(2-chlorophenyl)methyl]carboxamide] was run?
**A.** 126 nM

**Q.** With `NCC(=O)N1CCC(COC(=O)Nc2ccccc2)(C(=O)NCc2ccccc2Cl)CC1` [{1-(2-aminoacetyl)-4-[(N-phenylcarbamoyloxy)methyl](4-piperidyl)}-N-[(2-chlorophenyl)methyl]carboxamide] as the molecule, how does the IC50 read?
**A.** 9210 nM

**Q.** `CCc1ccc(NC(=O)OC2CCCN(C(=O)NCc3ccccc3C)C2)cc1` (stereo not drawn) [{3-[N-(4-ethylphenyl)carbamoyloxy]piperidyl}-N-[(2-methylphenyl)methyl]carboxamide] was tested. Which IC50 did it give?
**A.** 5540 nM

**Q.** How did the IC50 turn out when `CCc1ccc(NC(=O)O[C@@H]2CCCN(C(=O)NCc3ccccc3Cl)C2)cc1` [{(3R)-3-[N-(4-ethylphenyl)carbamoyloxy]piperidyl}-N-[(2-chlorophenyl)methyl]carboxamide] was run?
**A.** 1560 nM

**Q.** For `CCc1ccc(NC(=O)O[C@H]2CCCN(C(=O)NCc3ccccc3Cl)C2)cc1` [{(3S)-3-[N-(4-ethylphenyl)carbamoyloxy]piperidyl}-N-[(2-chlorophenyl)methyl]carboxamide], which IC50 is on record?
**A.** 10200 nM

**Q.** How did the IC50 turn out when `CCc1ccc(NC(=O)OCC2(C(=O)NCc3ccccc3C(F)(F)F)CCN(C(=O)CN)CC2)cc1` [{[1-(2-aminoacetyl)-4-(N-{[2-(trifluoromethyl)phenyl]methyl}carbamoyl)(4-piperidyl)]methoxy}-N-(4-ethylphenyl)carboxamide] was run?
**A.** 86 nM

**Q.** How did the IC50 turn out when `CCc1ccc(NC(=O)OCC2(C(=O)NCc3ccc(C(F)(F)F)cc3F)CCN(C(=O)CN)CC2)cc1` [{[1-(2-aminoacetyl)-4-(N-{[2-fluoro-4-(trifluoromethyl)phenyl]methyl}carbamoyl)(4-piperidyl)]methoxy}-N-(4-ethylphenyl)carboxamide] was run?
**A.** 11800 nM

**Q.** With `CCc1ccc(NC(=O)OCCN(C)C(=O)NCc2cccc(Cl)c2Cl)cc1` [{[(2,3-dichlorophenyl)methyl]amino}-N-{2-[N-(4-ethylphenyl)carbamoyloxy]ethyl}-N-methylcarboxamide] as the molecule, how does the IC50 read?
**A.** 59 nM

**Q.** Which IC50 does the source give for `CN(CCOC(=O)Nc1ccc2ccccc2c1)C(=O)NCc1ccccc1Cl` [{[(2-chlorophenyl)methyl]amino}-N-methyl-N-[2-(N-(2-naphthyl)carbamoyloxy)ethyl]carboxamide] here?
**A.** 30 nM

**Q.** With `CN(CCOC(=O)Nc1ccc2ncccc2c1)C(=O)NCc1ccccc1Cl` [{[(2-chlorophenyl)methyl]amino}-N-methyl-N-[2-(N-(6-quinolyl)carbamoyloxy)ethyl]carboxamide] as the molecule, how does the IC50 read?
**A.** 1410 nM

**Q.** With `CN(CCOC(=O)Nc1ccc(-c2ccccc2)cc1)C(=O)NCc1ccccc1Cl` [{[(2-chlorophenyl)methyl]amino}-N-methyl-N-{2-[N-(4-phenylphenyl)carbamoyloxy]ethyl}carboxamide] as the molecule, how does the IC50 read?
**A.** 248 nM

**Q.** Which IC50 does the source give for `CCc1ccc(NC(=O)OCC(C)(C)N(C)C(=O)NCc2ccccc2Cl)cc1` [{[(2-chlorophenyl)methyl]amino}-N-{2-[N-(4-ethylphenyl)carbamoyloxy]-tert-butyl}-N-methylcarboxamide] here?
**A.** 621 nM

**Q.** `CCc1ccc(NC(=O)OCCN(CCCCO)C(=O)NCc2ccccc2Cl)cc1` [{[(2-chlorophenyl)methyl]amino}-N-{2-[N-(4-ethylphenyl)carbamoyloxy]ethyl}-N-(4-hydroxybutyl) carboxamide] was tested. Which IC50 did it give?
**A.** 355 nM

**Q.** With `CCc1ccc(NC(=O)OCCN(CCNC)C(=O)NCc2ccccc2Cl)cc1` [{[(2-chlorophenyl)methyl]amino}-N-{2-[N-(4-ethylphenyl)carbamoyloxy]ethyl}-N-[2-(methylamino)ethyl]carboxamide] as the molecule, how does the IC50 read?
**A.** 16300 nM

**Q.** `CCc1ccc(NC(=O)OCCN(C)C(=O)NCc2ccccc2Cl)cc1` [{[(2-chlorophenyl)methyl]amino}-N-{2-[N-(4-ethylphenyl)carbamoyloxy]ethyl}-N-methylcarboxamide] was tested. Which IC50 did it give?
**A.** 84 nM

**Q.** With `CCc1ccc(NC(=O)OCCCN(C)C(=O)NCc2ccccc2Cl)cc1` [{[(2-chlorophenyl)methyl]amino}-N-{3-[N-(4-ethylphenyl)carbamoyloxy]propyl}-N-methylcarboxamide] as the molecule, how does the IC50 read?
**A.** 1670 nM

**Q.** `CCc1ccc(NC(=O)OCCCCN(C)C(=O)NCc2ccccc2Cl)cc1` [{[(2-chlorophenyl)methyl]amino}-N-{4-[N-(4-ethylphenyl)carbamoyloxy]butyl}-N-methylcarboxamide] was tested. Which IC50 did it give?
**A.** 6070 nM

**Q.** Which IC50 does the source give for `CCc1ccc(NC(=O)OCCN(C)C(=O)N(C)Cc2ccccc2Cl)cc1` [{[(2-chlorophenyl)methyl]methylamino}-N-{2-[N-(4-ethylphenyl)carbamoyloxy]ethyl}-N-methylcarboxamide] here?
**A.** 2080 nM

**Q.** How did the IC50 turn out when “(tert-butoxy)-N-[2-(3-{N-[(2-chlorophenyl)methyl]carbamoyl}-3-{[N-(4-ethylphenyl)carbamoyloxy]methyl}piperidyl)-2-oxoethyl]carboxamide” was run?
**A.** 1430 nM

**Q.** Which IC50 does the source give for “methyl (3S)-3-amino-4-(4-{N-[(2-chlorophenyl)methyl]carbamoyl}-4-{[N-(4-ethylphenyl)carbamoyloxy]methyl}piperidyl)-4-oxobutanoate” here?
**A.** 1120 nM

**Q.** How did the IC50 turn out when “tert-butyl 4-[(4-{N-[(2-chlorophenyl)methyl]carbamoyl}-4-{[N-(4-ethylphenyl)carbamoyloxy]methyl}piperidyl)carbonyl]piperidinecarboxylate” was run?
**A.** 3550 nM
